How the values were obtained:
[1] = tested on: Plasmodium falciparum; experiment: Antiplasmodial activity against chloroquine and pyrimethamine resistant Plasmodium falciparum K1 erythrocytic stages incubated for 48 hrs by [3H]-hypoxanthine incorporation assay; format: functional, organism-based
[2] = Selectivity index, ratio of IC50 for rat L6 cells to IC50 for chloroquine and pyrimethamine resistant Plasmodium falciparum K1; format: toxicity; settings: read-out: Ratio IC50
[3] = tested on: L6; experiment: Cytotoxicity in rat L6 cells assessed as reduction in cell viability incubated for 72 hrs by alamar blue assay; format: cell-based; settings: L6, 72 h
[4] = Selectivity index, ratio of IC50 for rat L6 cells to IC50 for chloroquine-sensitive Plasmodium falciparum NF54 erythrocytic stages; format: toxicity; settings: read-out: Ratio IC50
[5] = tested on: Plasmodium falciparum; experiment: Antiplasmodial activity against chloroquine-sensitive Plasmodium falciparum NF54 erythrocytic stages incubated for 48 hrs by [3H]-hypoxanthine incorporation assay; format: functional, organism-based
[6] = Effective permeability by PAMPA; format: ADME; settings: read-out: Peff
[7] = tested on: Plasmodium berghei
Description: Antiplasmodial activity against GFP-transfected Plasmodium berghei ANKA infected in NMRI mouse assessed as mean survival days at 50 mg/kg/day, ip for consecutive 4 days (4, 24, 48 and 72 hrs post infection) and measured up to 20 days after infection (Rvb = 6 to 7 days)

[8] = tested on: Plasmodium berghei; experiment: Antiplasmodial activity against GFP-transfected Plasmodium berghei ANKA infected in NMRI mouse assessed as reduction in parasitaemia at 50 mg/kg/day, ip for consecutive 4 days (4, 24, 48 and 72 hrs post infection) and measured up to 20 days after infection relative to untreated control; format: functional; design: scale not given: the % may be the effect or the level left

IC50 [5] [µM]	Papp [6] [×10⁻⁶ cm/s]	SMILES	IC50 [1] [µM]	selectivity ratio [2]	IC50 ([3]; read-out: IC50) [µM]	selectivity ratio [4]	MSD [7] [days]	Activity [8] [%]	IC50 [3] [µM]
64	3.67	O=C(c1cc(-c2ccc(CN3CCOCC3)cc2)nc2ccc(F)cc12)N1CCC(O)CC1	–	–	101	1.57	–	–	–
7.38	5.53	CCC(=O)N1CCN(C(=O)c2cc(-c3ccc(CN4CCOCC4)cc3)nc3ccc(F)cc23)CC1	–	–	92.4	12.6	–	–	–
37.7	–	O=C(c1cc(-c2ccc(CN3CCOCC3)cc2)nc2ccc(F)cc12)N1CCCCC1	–	–	102	2.69	–	–	–
1.94	9.26	CCCN1CCN(Cc2cc(-c3ccc(CN4CCOCC4)cc3)nc3ccc(F)cc23)CC1	–	–	14.9	7.67	–	–	–
7.13	0.19	CCOC(=O)N1CCC(NC(=O)c2cc(-c3ccc(CN4CCOCC4)cc3)nc3ccc(F)cc23)CC1	–	–	90.5	12.7	–	–	–
4.62	–	O=C(NCCc1ccccc1)c1cc(-c2ccc(CN3CCOCC3)cc2)nc2ccc(F)cc12	–	–	16.5	3.57	–	–	–
5.99	–	O=C(NCc1ccccc1)c1cc(-c2ccc(CN3CCOCC3)cc2)nc2ccc(F)cc12	–	–	103	17.2	–	–	–
3.11	2.09	CC(C)(C)N1CCN(CCNC(=O)c2cc(-c3ccc(CN4CCOCC4)cc3)nc3ccc(F)cc23)CC1	–	–	100	32.1	–	–	–
0.61	–	CN1CCN(CCC(=O)Nc2cc(-c3ccc(CN4CCOCC4)cc3)nc3ccc(F)cc23)CC1	–	–	31.6	51.8	–	–	–
10.1	7.15	CCC(=O)N1CCN(Cc2cc(-c3ccc(CN4CCOCC4)cc3)nc3ccc(F)cc23)CC1	–	–	38.6	3.83	–	–	–
8.78	–	O=C(NCC(F)(F)F)c1cc(-c2ccc(CN3CCOCC3)cc2)nc2ccc(F)cc12	–	–	98.9	11.3	–	–	–
0.99	–	O=C(NC1CCNCC1)c1cc(-c2ccc(CN3CCOCC3)cc2)nc2ccc(F)cc12	–	–	69.2	69.9	–	–	–
14.9	9.35	O=C(NCCc1ccccn1)c1cc(-c2ccc(CN3CCOCC3)cc2)nc2ccc(F)cc12	–	–	53.5	3.6	–	–	–
5.6	–	CC(NC(=O)c1cc(-c2ccc(CN3CCOCC3)cc2)nc2ccc(F)cc12)c1ccccc1 (racemic)	–	–	72.4	12.9	–	–	–
–	–	C[C@@H]1CC[C@H]2[C@@H](C)C(=O)O[C@@H]3O[C@@]4(C)CC[C@@H]1[C@]32OO4 [ARTEMISININ]	0.0064	70400	–	–	–	–	–
–	–	CCN(CC)CCCC(C)Nc1ccnc2cc(Cl)ccc12 (stereo not given) [CHLOROQUINE]	–	–	–	–	20	99.6	–
–	–	COc1cc([C@@H]2c3cc4c(cc3[C@H](O)[C@H]3COC(=O)[C@H]23)OCO4)cc(OC)c1OC [PODOFILOX]	–	–	–	–	–	–	0.012

SMILES	IC50 [5] [µM]	Papp [6] [×10⁻⁶ cm/s]	IC50 [1] [µM]	selectivity ratio [2]	IC50 ([3]; read-out: IC50) [µM]	selectivity ratio [4]	MSD [7] [days]	Activity [8] [%]	IC50 [3] [µM]
O=C(CN1CCCC1)Nc1cc(-c2ccc(CN3CCOCC3)cc2)nc2ccc(F)cc12	1.04	–	0.82	69.3	56.8	54.6	–	–	–
Fc1ccc2nc(-c3ccc(CN4CCOCC4)cc3)cc(CNCCN3CCN(c4ccccc4)CC3)c2c1	0.02	2.39	0.037	396	14.6	732	–	–	–
CC(C)(C)OC(=O)N1CCN(CCNCc2cc(-c3ccc(CN4CCOCC4)cc3)nc3ccc(F)cc23)CC1	0.018	4.57	0.041	484	19.8	1100	–	–	–
CC(C)(C)OC(=O)N1CCN(CCC(=O)Nc2cc(-c3ccc(CN4CCOCC4)cc3)nc3ccc(F)cc23)CC1	0.26	–	0.3	187	56.2	216	–	–	–
CC(C)(C)C(=O)N1CCN(CCNC(=O)c2cc(-c3ccc(CN4CCOCC4)cc3)nc3ccc(F)cc23)CC1	0.005	6.11	–	–	80	16000	4	25.2	–
Nc1cc(-c2ccc(CN3CCOCC3)cc2)nc2ccc(F)cc12	0.23	–	0.39	55	21.5	93.3	–	–	–
CN1CCN(Cc2ccc(-c3cc(NC(=O)CCN4CCCC4)c4cc(F)ccc4n3)cc2)CC1	0.002	–	0.0029	5370	15.6	7780	16	99.6	–
CC(C)(C)C(=O)N1CCN(CC(=O)Nc2cc(-c3ccc(CN4CCOCC4)cc3)nc3ccc(F)cc23)CC1	9.57	–	4.91	15.2	74.8	7.82	–	–	–
Fc1ccc2nc(-c3ccc(CN4CCOCC4)cc3)cc(CNCCN3CCCC3)c2c1	0.0011	4.55	0.0011	48900	53.8	48900	10	99.4	–
CC(C)(C)C(=O)N1CCN(CCC(=O)Nc2cc(-c3ccc(CN4CCOCC4)cc3)nc3ccc(F)cc23)CC1	0.53	–	0.36	124	44.5	83.9	–	–	–
CC(C)(C)OC(=O)N1CCN(CC(=O)Nc2cc(-c3ccc(CN4CCOCC4)cc3)nc3ccc(F)cc23)CC1	7.53	–	3.5	25.5	89.2	11.8	–	–	–
O=C(CCN1CCCC1)Nc1cc(-c2ccc(CN3CCOCC3)cc2)nc2ccc(F)cc12	0.004	10.1	0.011	11200	123	30800	4	33.9	–

Source: ChEMBL document CHEMBL4392851, “Synthesis and structure-activity relationships for new 6-fluoroquinoline derivatives with antiplasmodial activity” (Bioorg Med Chem, 2019)
